Results taken from ChEMBL document CHEMBL1124787, “Conformationally constrained congeners of 6-aryl-5-methyl-4,5-dihydro-3(2H)-pyridazinones active on the cardiovascular system: conformational studies by molecular mechanics calculations and 1H NMR spectroscopy” (1990).
The source made the active and inactive calls. No cut-off for these calls is given here.

Experiments:
Mus musculus = assay: Antithrombotic activity after oral administration in mouse was measured as protection vs control percent; format: functional
Cavia porcellus = species: Cavia porcellus; assay: Inotropic activity evaluated in vitro in spontaneously beating guinea pig atria;IA-Inactive; format: functional
Rattus norvegicus = assay: The dose (administered orally) that lowered blood pressure by 50 mmHg in conscious, spontaneously hypertensive rats (SHR) (peak effect); IA-Inactive; format: functional, organism-based

Compound | Activity (Mus musculus) | pD2 (Cavia porcellus) | ED50 (Rattus norvegicus)
CC(=O)Nc1ccc2c(c1)CC1CC(=O)NN=C21 (stereo not given) | 100 |  | 
Nc1ccc2c(c1)CCC1CC(=O)NN=C21 (stereo not given) | 73 |  | 
CC(=O)Nc1ccc2c(c1)CCCC1CC(=O)NN=C21 (stereo not given) | 46 | inactive | inactive
Nc1ccc2c(c1)CC1CC(=O)NN=C21 (stereo not given) | 87 |  | 
Nc1ccc2c(c1)CCCC1CC(=O)NN=C21 (stereo not given) | 45 | inactive | inactive
CC(=O)Nc1ccc2c(c1)CCC1CC(=O)NN=C21 (stereo not given) | 100 |  | 
